Experimental data published in BindingDB's records for doi:10.1124/jpet.105.097006 (Acadia Pharmaceuticals, 2006).

Assays:
[1] = biological target: T1, 5-hydroxytryptamine receptor 2A (Homo sapiens, UniProt P28223); test: Radioligand Binding Assay; settings: 4 °C
Description: (§1) For the membrane binding, NIH-3T3 cells were grown to 70% confluence in 15-cm2 dishes and transfected with 10 ug of receptor plasmid DNA using Polyfect transfection reagent (QIAGEN, Valencia, CA) according to manufacturer s protocols. Two days after transfection, cells expressing the desired serotonin receptor were homogenized in 20 mM HEPES/10 mM EDTA and spun down at 11,000g at 4 C for 30 min. The supernatant was discarded, and the pellet was resuspended in 20 mM HEPES/1 mM EDTA and spun down at the same setting. The pellet was then resuspended in 20 mM HEPES/0.5 mM EDTA, and membranes were used for binding assays. Bradford analysis was used to determine total membrane protein.

[2] = biological target: T2, 5-hydroxytryptamine receptor 2C (Homo sapiens, UniProt P28335); test: Radioligand Binding Assay; settings: 4 °C
T2 sequence (P28335 whole entry): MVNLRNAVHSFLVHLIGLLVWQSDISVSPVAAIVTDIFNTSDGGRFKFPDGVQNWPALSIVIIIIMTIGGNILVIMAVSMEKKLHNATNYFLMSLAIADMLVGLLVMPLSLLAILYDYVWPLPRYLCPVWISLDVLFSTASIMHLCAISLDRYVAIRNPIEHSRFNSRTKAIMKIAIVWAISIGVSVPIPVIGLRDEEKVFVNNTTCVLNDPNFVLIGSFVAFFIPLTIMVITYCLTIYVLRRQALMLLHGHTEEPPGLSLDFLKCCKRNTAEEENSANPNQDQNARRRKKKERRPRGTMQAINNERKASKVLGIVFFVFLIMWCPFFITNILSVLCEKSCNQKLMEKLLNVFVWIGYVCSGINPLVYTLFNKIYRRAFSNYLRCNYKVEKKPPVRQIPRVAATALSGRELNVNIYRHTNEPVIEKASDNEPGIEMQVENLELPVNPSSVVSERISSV
Description: as §1

[3] = biological target: T1, 5-hydroxytryptamine receptor 2A; test: Receptor Selection and Amplification Technology
[4] = biological target: 5-hydroxytryptamine receptor 2B (Homo sapiens, UniProt P41595); test: Receptor Selection and Amplification Technology
5-hydroxytryptamine receptor 2B, sequence (P41595 whole entry): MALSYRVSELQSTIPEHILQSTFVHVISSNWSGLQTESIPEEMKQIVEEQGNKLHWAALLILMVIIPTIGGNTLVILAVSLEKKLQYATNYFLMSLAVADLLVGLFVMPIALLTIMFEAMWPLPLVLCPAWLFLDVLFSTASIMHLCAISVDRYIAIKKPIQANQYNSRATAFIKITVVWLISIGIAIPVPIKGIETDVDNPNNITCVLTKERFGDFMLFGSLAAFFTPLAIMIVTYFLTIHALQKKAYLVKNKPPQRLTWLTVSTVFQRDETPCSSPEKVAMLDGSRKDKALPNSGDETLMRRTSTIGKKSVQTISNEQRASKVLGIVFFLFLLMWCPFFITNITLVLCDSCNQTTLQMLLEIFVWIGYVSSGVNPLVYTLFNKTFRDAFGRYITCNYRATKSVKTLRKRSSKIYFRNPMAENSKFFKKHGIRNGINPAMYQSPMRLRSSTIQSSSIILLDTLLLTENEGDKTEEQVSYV

[5] = biological target: T2, 5-hydroxytryptamine receptor 2C; test: Receptor Selection and Amplification Technology

T1 sequence (P28223 whole entry): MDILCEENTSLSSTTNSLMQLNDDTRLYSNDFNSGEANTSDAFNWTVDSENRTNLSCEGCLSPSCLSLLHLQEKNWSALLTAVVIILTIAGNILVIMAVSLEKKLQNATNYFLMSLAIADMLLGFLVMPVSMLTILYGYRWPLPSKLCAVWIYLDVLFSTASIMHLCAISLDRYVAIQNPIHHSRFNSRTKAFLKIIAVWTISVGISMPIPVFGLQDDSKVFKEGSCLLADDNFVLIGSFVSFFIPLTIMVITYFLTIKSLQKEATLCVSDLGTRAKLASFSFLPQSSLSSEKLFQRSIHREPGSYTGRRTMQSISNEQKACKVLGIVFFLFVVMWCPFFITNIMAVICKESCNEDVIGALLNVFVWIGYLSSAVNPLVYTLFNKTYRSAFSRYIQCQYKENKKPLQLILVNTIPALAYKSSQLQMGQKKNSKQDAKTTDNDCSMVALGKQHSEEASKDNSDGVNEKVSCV

Ki [1] [nM]	IC50 [3] [nM]	Compound	Ki [2] [nM]	IC50 [4] [nM]	IC50 [5] [nM]
0.046	1	CN(C)CCON/C(=C/C=C1C=CC(=O)C=C1)c1ccccc1F [eplivanserin]	1.3		
		Cc1nc2sccn2c(=O)c1CCN1CCC(=C(c2ccc(F)cc2)c2ccc(F)cc2)CC1	0.44	3	4.5
